Experimental data as given in PMC3914206.

Legend:
Experiment in all cases: KiNativ chemical proteomics profiling in HeLa and PC3 cell lysates
Assay type in all cases: binding
[1] = biological target: T1, selected panels of kinases in HeLa and PC3 cell lysates (Homo sapiens, UniProt P25098); conditions: 10 uM; proteome HEL; peptide DLk[…]; labeling site Lys2
T1 construct: endogenous in cells; host or cells: HeLa and PC3 cell lysates

[2] = biological target: T2, selected panels of kinases in HeLa and PC3 cell lysates (Homo sapiens, UniProt Q9Y6E0); conditions: 10 uM; proteome HEL; peptide DIk[…]; labeling site Lys2
T2 construct: endogenous in cells; host or cells: HeLa and PC3 cell lysates

[3] = biological target: T3, selected panels of kinases in HeLa and PC3 cell lysates (Homo sapiens, UniProt P45985); conditions: 10 uM, proteome PC3
T3 construct: endogenous in cells; host or cells: HeLa and PC3 cell lysates
T3 sequence (P45985 1-399): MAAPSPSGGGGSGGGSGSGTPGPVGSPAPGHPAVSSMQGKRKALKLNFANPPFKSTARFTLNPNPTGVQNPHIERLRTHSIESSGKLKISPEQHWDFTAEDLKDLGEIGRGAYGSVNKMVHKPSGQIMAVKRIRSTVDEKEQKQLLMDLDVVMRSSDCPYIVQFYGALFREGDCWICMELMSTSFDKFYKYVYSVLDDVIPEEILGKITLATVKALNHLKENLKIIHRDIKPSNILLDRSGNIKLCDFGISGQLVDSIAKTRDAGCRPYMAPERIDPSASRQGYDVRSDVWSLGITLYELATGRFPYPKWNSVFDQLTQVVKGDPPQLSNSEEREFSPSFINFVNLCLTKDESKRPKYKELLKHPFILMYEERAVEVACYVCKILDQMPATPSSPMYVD

[4] = biological target: T4, selected panels of kinases in HeLa and PC3 cell lysates (Homo sapiens, UniProt Q86SG6); conditions: 10 uM; proteome PC3; peptide DLkTQNILLDK; labeling site Lys2
T4 construct: endogenous in cells; host or cells: HeLa and PC3 cell lysates

[5] = biological target: T5, selected panels of kinases in HeLa and PC3 cell lysates (Homo sapiens, UniProt Q9UKI8); conditions: 10 uM, TLK1
T5 construct: endogenous in cells; host or cells: HeLa and PC3 cell lysates
T5 sequence (Q9UKI8 1-766): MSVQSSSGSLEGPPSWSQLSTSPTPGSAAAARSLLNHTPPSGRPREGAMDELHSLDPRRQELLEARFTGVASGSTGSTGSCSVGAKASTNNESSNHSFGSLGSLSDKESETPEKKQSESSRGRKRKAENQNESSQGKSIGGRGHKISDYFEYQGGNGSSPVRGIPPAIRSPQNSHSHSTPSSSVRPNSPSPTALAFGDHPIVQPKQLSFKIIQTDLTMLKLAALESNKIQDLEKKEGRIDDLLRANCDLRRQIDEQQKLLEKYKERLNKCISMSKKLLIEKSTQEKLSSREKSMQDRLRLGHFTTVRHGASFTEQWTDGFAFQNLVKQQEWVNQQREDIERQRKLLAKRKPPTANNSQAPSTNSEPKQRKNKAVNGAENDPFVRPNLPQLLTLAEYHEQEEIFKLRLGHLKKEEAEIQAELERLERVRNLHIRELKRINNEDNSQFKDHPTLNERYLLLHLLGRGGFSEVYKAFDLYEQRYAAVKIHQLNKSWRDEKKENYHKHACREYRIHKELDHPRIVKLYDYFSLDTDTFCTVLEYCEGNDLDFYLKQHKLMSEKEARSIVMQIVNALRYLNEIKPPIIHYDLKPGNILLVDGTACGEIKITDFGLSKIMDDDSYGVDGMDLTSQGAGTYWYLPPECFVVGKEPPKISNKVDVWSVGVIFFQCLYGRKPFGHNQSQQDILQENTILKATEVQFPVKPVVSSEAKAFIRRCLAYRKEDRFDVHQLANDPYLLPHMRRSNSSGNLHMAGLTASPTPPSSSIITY

[6] = biological target: T6, selected panels of kinases in HeLa and PC3 cell lysates (Homo sapiens, UniProt P19784); conditions: 10 uM; proteome PC3; peptide DVk[…]; labeling site Lys2
T6 construct: endogenous in cells; host or cells: HeLa and PC3 cell lysates

[7] = biological target: T7, selected panels of kinases in HeLa and PC3 cell lysates (Homo sapiens, UniProt P50613); conditions: 10 uM; proteome HEL; peptide DLk[…]; labeling site Lys2
T7 construct: endogenous in cells; host or cells: HeLa and PC3 cell lysates

[8] = biological target: T8, selected panels of kinases in HeLa and PC3 cell lysates (Homo sapiens, UniProt P16591); conditions: 10 uM, peptide TSVAVk[…], labeling site Lys1
T8 construct: endogenous in cells; host or cells: HeLa and PC3 cell lysates

[9] = biological target: T9, selected panels of kinases in HeLa and PC3 cell lysates (Homo sapiens, UniProt Q9H2G2); conditions: 10 uM, SLK
T9 construct: endogenous in cells; host or cells: HeLa and PC3 cell lysates

[10] = biological target: T10, selected panels of kinases in HeLa and PC3 cell lysates (Homo sapiens, UniProt P78527); conditions: 10 uM, labeling site ATP
T10 construct: endogenous in cells; host or cells: HeLa and PC3 cell lysates

[11] = biological target: T11, selected panels of kinases in HeLa and PC3 cell lysates (Homo sapiens, UniProt Q9Y6R4); conditions: 10 uM, peptide DIk[…], labeling site Lys2
T11 construct: endogenous in cells; host or cells: HeLa and PC3 cell lysates

[12] = biological target: T12, selected panels of kinases in HeLa and PC3 cell lysates (Homo sapiens, UniProt P23443); conditions: 10 uM, peptide DLk[…], labeling site Lys2; for % Inhibition p70S6K: proteome PC3; for % Inhibiton, p70S6K: proteome HEL
T12 construct: endogenous in cells; host or cells: HeLa and PC3 cell lysates

[13] = biological target: T13, selected panels of kinases in HeLa and PC3 cell lysates (Homo sapiens, UniProt Q96S44); conditions: 10 uM, PRPK, peptide FLSGLELVkQGAEAR, labeling site ATP Loop
T13 construct: endogenous in cells; host or cells: HeLa and PC3 cell lysates
T13 sequence (Q96S44 1-253): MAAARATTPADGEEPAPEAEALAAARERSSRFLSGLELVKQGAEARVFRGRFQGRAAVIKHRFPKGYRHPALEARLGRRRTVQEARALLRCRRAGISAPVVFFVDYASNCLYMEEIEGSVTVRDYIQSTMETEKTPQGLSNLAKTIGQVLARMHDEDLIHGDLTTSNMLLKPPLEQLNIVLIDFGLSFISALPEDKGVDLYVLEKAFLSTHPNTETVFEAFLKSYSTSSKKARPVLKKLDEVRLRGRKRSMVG

[14] = biological target: T14, selected panels of kinases in HeLa and PC3 cell lysates (Homo sapiens, UniProt P48729); conditions: 10 uM; proteome PC3; peptide DIk[…]; labeling site Lys2
T14 construct: endogenous in cells; host or cells: HeLa and PC3 cell lysates

[15] = peptide DIkPSNILLDR, labeling site Lys2
[16] = peptide […]kR, labeling site Lys1
[17] = peptide YAAVkIHQLNK, proteome HEL, labeling site Lys1
[18] = peptide YAAVkIHQLNK, proteome PC3, labeling site Lys1
[19] = peptide […]k[…], proteome HEL, labeling site Lys2
[20] = peptide […]k[…], proteome PC3, labeling site Lys2
[21] = peptide DLk[…], proteome HEL, labeling site Lys2
[22] = peptide DLk[…], proteome PC3, labeling site Lys2
[23] = peptide ETSVLAAAkVIDTK, proteome PC3, labeling site Lys1

T9 sequence (Q9H2G2 whole entry): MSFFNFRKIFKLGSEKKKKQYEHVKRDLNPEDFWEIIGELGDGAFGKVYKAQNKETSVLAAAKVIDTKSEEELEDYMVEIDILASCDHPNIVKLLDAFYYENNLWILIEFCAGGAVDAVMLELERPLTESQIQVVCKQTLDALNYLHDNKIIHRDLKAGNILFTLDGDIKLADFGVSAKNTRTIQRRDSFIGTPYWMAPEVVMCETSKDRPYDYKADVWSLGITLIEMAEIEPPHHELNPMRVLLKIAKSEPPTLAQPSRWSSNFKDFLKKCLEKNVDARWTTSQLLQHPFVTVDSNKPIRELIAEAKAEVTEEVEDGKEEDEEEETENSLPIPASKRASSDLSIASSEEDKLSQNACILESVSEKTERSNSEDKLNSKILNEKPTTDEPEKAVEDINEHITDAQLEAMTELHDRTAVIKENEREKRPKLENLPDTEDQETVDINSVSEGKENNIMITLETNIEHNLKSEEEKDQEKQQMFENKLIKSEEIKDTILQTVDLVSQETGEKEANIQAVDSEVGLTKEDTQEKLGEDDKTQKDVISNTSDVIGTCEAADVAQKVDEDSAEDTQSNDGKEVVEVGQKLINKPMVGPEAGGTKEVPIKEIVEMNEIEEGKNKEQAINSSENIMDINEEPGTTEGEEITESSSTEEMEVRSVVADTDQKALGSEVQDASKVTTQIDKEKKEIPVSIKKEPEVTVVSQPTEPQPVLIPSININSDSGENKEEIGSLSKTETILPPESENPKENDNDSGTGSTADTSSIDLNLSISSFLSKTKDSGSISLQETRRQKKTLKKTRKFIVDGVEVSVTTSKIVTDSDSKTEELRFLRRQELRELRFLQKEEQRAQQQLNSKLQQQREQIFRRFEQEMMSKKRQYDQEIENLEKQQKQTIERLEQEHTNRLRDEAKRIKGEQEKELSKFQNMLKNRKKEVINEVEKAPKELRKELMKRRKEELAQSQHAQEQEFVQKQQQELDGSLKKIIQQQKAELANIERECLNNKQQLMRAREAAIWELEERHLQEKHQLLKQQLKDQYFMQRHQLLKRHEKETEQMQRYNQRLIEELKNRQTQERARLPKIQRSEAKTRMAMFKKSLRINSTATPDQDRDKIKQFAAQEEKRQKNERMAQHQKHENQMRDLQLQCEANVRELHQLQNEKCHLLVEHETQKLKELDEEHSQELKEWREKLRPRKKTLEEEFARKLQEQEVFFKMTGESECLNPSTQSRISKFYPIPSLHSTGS
T8 sequence (P16591 whole entry): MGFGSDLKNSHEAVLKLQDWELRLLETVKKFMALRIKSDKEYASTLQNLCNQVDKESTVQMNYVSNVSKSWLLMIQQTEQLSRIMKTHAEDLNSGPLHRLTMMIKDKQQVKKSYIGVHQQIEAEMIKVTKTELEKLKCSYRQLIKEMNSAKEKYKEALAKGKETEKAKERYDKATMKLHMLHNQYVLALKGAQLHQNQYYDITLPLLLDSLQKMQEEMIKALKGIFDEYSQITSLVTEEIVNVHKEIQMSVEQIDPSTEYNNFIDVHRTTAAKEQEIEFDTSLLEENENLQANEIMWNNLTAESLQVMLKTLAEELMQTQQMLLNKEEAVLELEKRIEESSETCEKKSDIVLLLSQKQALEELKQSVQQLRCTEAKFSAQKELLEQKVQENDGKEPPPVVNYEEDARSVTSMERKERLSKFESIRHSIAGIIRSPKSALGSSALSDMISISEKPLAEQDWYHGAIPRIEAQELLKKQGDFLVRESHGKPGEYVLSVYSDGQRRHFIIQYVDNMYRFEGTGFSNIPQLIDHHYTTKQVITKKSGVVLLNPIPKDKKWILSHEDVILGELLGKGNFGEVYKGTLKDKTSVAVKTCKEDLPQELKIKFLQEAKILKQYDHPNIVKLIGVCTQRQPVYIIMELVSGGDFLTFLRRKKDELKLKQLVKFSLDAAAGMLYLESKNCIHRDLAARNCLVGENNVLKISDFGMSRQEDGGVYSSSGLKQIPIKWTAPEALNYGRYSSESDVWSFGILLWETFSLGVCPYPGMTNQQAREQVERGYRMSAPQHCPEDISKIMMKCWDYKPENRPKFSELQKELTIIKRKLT
T12 sequence (P23443 whole entry): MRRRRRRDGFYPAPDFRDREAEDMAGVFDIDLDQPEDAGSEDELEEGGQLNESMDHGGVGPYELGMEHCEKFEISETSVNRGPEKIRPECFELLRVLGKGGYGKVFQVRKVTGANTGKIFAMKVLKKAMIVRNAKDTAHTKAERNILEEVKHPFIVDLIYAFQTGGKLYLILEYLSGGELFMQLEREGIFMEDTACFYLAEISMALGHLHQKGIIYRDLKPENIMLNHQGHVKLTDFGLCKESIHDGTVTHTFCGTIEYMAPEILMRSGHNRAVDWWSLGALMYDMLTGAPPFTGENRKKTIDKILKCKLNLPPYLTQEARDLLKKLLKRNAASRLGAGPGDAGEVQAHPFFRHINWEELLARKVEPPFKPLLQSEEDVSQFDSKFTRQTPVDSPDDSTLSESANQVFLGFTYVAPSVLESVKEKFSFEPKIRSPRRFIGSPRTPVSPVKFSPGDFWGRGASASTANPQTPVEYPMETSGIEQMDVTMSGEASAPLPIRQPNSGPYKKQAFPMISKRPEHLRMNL
T11 sequence (Q9Y6R4 whole entry): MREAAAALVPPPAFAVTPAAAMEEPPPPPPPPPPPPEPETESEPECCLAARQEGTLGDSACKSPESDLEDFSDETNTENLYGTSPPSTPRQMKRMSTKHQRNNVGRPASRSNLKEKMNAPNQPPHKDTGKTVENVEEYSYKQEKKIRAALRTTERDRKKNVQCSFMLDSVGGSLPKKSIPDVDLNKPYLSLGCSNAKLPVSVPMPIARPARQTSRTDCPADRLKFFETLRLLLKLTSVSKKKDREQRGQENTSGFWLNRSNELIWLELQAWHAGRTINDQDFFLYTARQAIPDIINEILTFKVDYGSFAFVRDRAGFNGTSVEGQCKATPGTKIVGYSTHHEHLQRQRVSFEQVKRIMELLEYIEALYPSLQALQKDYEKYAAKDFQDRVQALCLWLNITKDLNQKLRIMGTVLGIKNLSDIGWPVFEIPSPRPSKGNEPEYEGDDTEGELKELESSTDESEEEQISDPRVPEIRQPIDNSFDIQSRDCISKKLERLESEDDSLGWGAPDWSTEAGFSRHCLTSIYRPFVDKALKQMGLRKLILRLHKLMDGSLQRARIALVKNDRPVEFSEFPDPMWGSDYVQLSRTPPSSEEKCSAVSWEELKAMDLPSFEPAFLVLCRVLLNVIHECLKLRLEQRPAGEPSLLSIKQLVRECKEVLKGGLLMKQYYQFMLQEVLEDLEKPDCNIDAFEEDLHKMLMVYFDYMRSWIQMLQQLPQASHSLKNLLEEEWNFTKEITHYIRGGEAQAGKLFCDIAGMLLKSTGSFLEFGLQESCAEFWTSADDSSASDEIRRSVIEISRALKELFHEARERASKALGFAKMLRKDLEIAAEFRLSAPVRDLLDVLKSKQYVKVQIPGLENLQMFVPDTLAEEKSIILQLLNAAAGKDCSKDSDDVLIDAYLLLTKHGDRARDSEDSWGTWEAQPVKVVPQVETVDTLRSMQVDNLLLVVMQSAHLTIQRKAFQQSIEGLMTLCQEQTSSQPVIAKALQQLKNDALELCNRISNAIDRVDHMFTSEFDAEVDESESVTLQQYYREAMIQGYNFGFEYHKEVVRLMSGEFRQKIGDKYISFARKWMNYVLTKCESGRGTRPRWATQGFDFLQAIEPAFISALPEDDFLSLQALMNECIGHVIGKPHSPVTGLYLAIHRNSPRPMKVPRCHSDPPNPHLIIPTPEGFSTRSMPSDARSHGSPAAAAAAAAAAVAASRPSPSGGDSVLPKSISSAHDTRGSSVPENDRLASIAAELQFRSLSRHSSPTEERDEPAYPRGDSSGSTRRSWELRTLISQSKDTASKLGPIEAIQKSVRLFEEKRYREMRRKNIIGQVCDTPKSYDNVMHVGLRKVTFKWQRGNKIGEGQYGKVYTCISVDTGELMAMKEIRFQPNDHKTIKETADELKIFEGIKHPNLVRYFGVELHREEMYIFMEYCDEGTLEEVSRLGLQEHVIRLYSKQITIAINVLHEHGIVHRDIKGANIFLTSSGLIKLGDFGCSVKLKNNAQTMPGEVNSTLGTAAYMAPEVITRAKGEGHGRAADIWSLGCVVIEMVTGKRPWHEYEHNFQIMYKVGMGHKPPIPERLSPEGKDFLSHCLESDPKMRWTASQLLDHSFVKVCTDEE
T1 sequence (P25098 whole entry): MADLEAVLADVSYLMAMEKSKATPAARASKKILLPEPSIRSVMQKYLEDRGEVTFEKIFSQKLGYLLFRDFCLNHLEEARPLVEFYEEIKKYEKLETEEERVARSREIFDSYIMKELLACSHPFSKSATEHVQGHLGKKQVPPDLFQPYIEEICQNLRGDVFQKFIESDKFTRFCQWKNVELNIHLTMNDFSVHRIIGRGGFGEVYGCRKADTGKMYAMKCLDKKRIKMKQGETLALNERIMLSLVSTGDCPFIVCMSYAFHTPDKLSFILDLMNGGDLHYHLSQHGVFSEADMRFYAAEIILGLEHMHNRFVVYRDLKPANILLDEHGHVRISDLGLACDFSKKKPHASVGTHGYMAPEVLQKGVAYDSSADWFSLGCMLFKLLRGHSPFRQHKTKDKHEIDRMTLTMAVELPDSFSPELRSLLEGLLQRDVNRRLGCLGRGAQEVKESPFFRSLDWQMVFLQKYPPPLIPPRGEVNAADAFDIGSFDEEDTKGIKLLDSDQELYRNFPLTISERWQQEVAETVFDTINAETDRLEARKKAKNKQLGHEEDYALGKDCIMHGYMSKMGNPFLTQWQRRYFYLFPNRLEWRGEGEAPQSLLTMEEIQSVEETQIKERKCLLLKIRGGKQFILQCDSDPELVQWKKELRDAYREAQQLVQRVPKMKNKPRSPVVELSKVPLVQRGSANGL

## COc1cc(C(=O)N2CCC(N3CCN(C)CC3)CC2)ccc1Nc1ncc2c(n1)N(C1CCCC1)c1ccccc1C(=O)N2C [Compound 25, 11-cyclopentyl-2-((2-methoxy-4-(4-(4-methylpiperazin-1-yl)piperidine-1-carbonyl)phenyl)amino)-5-methyl-5H-benzo[e]pyrimido[5,4-b][1,4]diazepin-6(11H)-one]
[1]
  % Inhibiton, BARK1: 12.0%
[2]
  % Inhibiton, MST3: 7.3%
[3]; [15]
  % Inhibiton, MAP2K4: -7.6%
[3]; [16]
  % Inhibiton, MAP2K4: -9.0%
[4]
  % Inhibiton, NEK8: -18.9%
[5]; [17]
  % Inhibition TLK1: -21.7%
[5]; [18]
  % Inhibition TLK1: -9.7%
[5]; [19]
  % Inhibition TLK1: -8.4%
[5]; [20]
  % Inhibition TLK1: -12.2%
[6]
  % Inhibiton, CK2a2: -14.2%
[7]
  % Inhibiton, CDK7: 67.9%
[8]; proteome HEL
  % Inhibiton, FER: 21.3%
[8]; proteome PC3
  % Inhibiton, FER: 28.9%
[9]; [21]
  % Inhibition SLK: 10.4%
[9]; [22]
  % Inhibition SLK: -11.4%
[9]; [23]
  % Inhibition SLK: -17.6%
[10]; proteome HEL, peptide […]k[…]
  % Inhibiton, DNAPK: 2.3%
[10]; proteome PC3, peptide […]k[…]
  % Inhibiton, DNAPK: -16.3%
[10]; proteome PC3, peptide k[…]
  % Inhibiton, DNAPK: -9.9%
[11]; proteome HEL
  % Inhibiton, MAP3K4: 7.2%
[11]; proteome PC3
  % Inhibiton, MAP3K4: 2.6%
[12]
  % Inhibition p70S6K: 3.9%
  % Inhibiton, p70S6K: 16.9%
[13]; proteome HEL
  % Inhibition PRPK: -8.1%
[13]; proteome PC3
  % Inhibition PRPK: -11.3%
[14]
  % Inhibiton, CK1a: 9.4%

## CCOc1cc(C(=O)N2CCC(N3CCN(C)CC3)CC2)ccc1Nc1ncc2c(n1)N(C1CCCC1)c1ccccc1C(=O)N2C [Compound 26]
[1]
  % Inhibiton, BARK1: 10.9%
[2]
  % Inhibiton, MST3: 9.7%
[3]; [15]
  % Inhibiton, MAP2K4: -14.4%
[3]; [16]
  % Inhibiton, MAP2K4: -7.3%
[4]
  % Inhibiton, NEK8: -8.1%
[5]; [17]
  % Inhibition TLK1: 35.7%
[5]; [18]
  % Inhibition TLK1: 6.2%
[5]; [19]
  % Inhibition TLK1: 3.6%
[5]; [20]
  % Inhibition TLK1: 6.8%
[6]
  % Inhibiton, CK2a2: 8%
[7]
  % Inhibiton, CDK7: 22.2%
[8]; proteome HEL
  % Inhibiton, FER: 24.7%
[8]; proteome PC3
  % Inhibiton, FER: 12%
[9]; [21]
  % Inhibition SLK: 25.7%
[9]; [22]
  % Inhibition SLK: 2.9%
[9]; [23]
  % Inhibition SLK: -35.8%
[10]; proteome HEL, peptide […]k[…]
  % Inhibiton, DNAPK: 2.3%
[10]; proteome PC3, peptide […]k[…]
  % Inhibiton, DNAPK: 10.1%
[10]; proteome PC3, peptide k[…]
  % Inhibiton, DNAPK: 23.8%
[11]; proteome HEL
  % Inhibiton, MAP3K4: -12%
[11]; proteome PC3
  % Inhibiton, MAP3K4: -1.2%
[12]
  % Inhibition p70S6K: 10%
  % Inhibiton, p70S6K: -24.4%
[13]; proteome HEL
  % Inhibition PRPK: 9.6%
[13]; proteome PC3
  % Inhibition PRPK: -5.6%
[14]
  % Inhibiton, CK1a: -0.3%
